Data published in paper PMC10535219, “Discovery and Potential Utility of a Novel Non-Invasive Ocular Delivery Platform” (Pharmaceutics, 2023).
Like-named read-outs stand apart in the source and are kept apart here.

Experiments:
[1] = Biodisposition of JV-DE1 and JV-MD2 delivered via NIODP (periorbital skin) in non-human primates; type: in vivo, cynomolgus monkeys; conditions: for % Administered Dose, Retina: endogenous DHA subtracted; for Cmax / concentration at 0.5 h / concentration at 24 h / concentration at 3 h / concentration at 6 h: cynomolgus monkey, topical
Experimental: All experiments were performed at Medicilon. […] A pen brush was used to dose each formulation with three to four circular motions for even distribution. The doses of the test articles were selected based on their solubility/concentration with the maximum deliverable volume on the periorbital skin of the animals. The administered dose was calculated by the weight difference of the pen brush before and after administration. Animals were restrained from eye rubbing in restraint chairs for 2 h after dosing, with access to food and drink. A blood sample was collected from one of the study animals at pre-dosing. For every time point of 0.5, 3, 6, and 24 h post-dose, one animal was euthanized and the ocular tissues (upper eyelid, cornea, retina, and vitreous humor) of both eyes were collected. Plasma samples were collected before each euthanization.
For the convenience of tissue processing and sample extraction, only upper eyelids were collected to represent the entirety of the periorbital tissue. Ocular tissues were homogenized by adding a 9-fold volume of 50% methanol/H2O per gram of tissue. For the LC-MS/MS sample preparation, a 50 μL aliquot of plasma, aqueous humor, vitreous humor, or tissue homogenate was thoroughly mixed with a 250 μL extraction solution of CHCl3/EtOH (1:1); then, a 210 μL supernatant of the samples was transferred to a 96-well plate after centrifugation. The samples were evaporated in nitrogen gas (N2) until dried. Each sample was redissolved in 200 μL MeOH, of which 2 µL was injected for the LC-MS/MS analysis.
The LC system was the same as that described in Section 2. The MS analysis was performed using a Triple Quad 5500 with an ESI ion source, and the data acquisition and control system were Analyst 1.6.3 software from Applied Biosystems/MDS Sciex.
The LC/MS conditions for JV-DE1 are described in Supplementary Table S2. The LC conditions were as follows: ACQUITY UPLC ® BEH C18 1.7 μm, 2.1 mm × 50 mm; the mobile phase Column A, 0.1% formic acid in water; and Column B, 0.1% formic acid in acetonitrile. The flow rate was 0.6 ml/min, the column temperature was 50 °C, and the injection volume was 2 µL. The MS conditions were as follows: scan type, positive MRM; ion source, turbo spray; ionization model, ESI; nebulizer gas 1, 55 psi; gas 2, 55 psi; curtain gas, 40 psi; CAD, 10; ionspray voltage, 5500 V; and temperature, 550 °C.
The LC/MS conditions for JV-MD2 (DHA) are described in Supplementary Table S3. The LC conditions were as follows: ACQUITY UPLC® BEH C18 1.7 μm, 2.1 mm × 50 mm; the mobile phase Column A, […] NH4AC in H2O; and Column B, CAN. The flow rate was 0.5 mL/min, the column temperature was 40 °C, and the injection volume was 4 µL. The MS conditions were as follows: scan type, negative MRM; ion source, turbo spray; ionization model, ESI; nebulizer gas 1, 55 psi; gas 2, 55 psi; curtain gas, 40 psi; CAD, 9; ionspray voltage, 5500 V; and temperature, 550 °C.

COX-2 = test system: COX-2; design: method as in PMID 22765297, PMID 24005906; conditions: COX-2 signaling cascade; cited from earlier work
IL-1β production = test system: IL-1β production; design: method as in PMID 29352206; conditions: human THP-1 macrophage cell line; read-out: IC50 for reducing IL-1β production; cited from earlier work
[2] = design: method as in PMID 35250585; conditions: once-daily intragastric administration; mice; cited from earlier work
[3] = design: method as in PMID 32434914; conditions: dietary supplementation; mouse model with advanced AMD pathologies; cited from earlier work
photoreceptors = test system: photoreceptors; design: method as in PMID 23723389; conditions: rat retinal neuronal cultures; by activating RXRs; cited from earlier work
[4] = JV-MD2, monkey, NIODP OS, 6568 μg/eye, 0.5 h
[5] = JV-MD2, monkey, NIODP OS, 6747 μg/eye, 24 h
[6] = JV-MD2, monkey, NIODP OS, 6768 μg/eye, 3 h
[7] = JV-MD2, monkey, NIODP OS, 7018 μg/eye, 6 h
[8] = JV-MD2, monkey, NIODP, within 30 min of dosing

CC/C=C\C/C=C\C/C=C\C/C=C\C/C=C\C/C=C\CCC(=O)O [JV-MD2, cis-4,7,10,13,16,19-docosahexaenoic acid]
concentration in vitreous humor ([1]; JV-MD2, monkey, NIODP 6775 µg/eye, all timepoints except 24 h, LLOQ 0.5 µg/mL): below BLQ | % Administered Dose, Cornea [1, 4]: 0.0283% | % Administered Dose, Eyelid/periorbital skin [1, 4]: 0.4288% | % Administered Dose, Vitreous humor [1, 4]: 0.0000% | % Administered Dose, Retina [1, 4]: 0.0343% | % Administered Dose, Cornea [1, 5]: 0.0173% | % Administered Dose, Eyelid/periorbital skin [1, 5]: 0.0197% | % Administered Dose, Vitreous humor [1, 5]: 0.0236% | % Administered Dose, Retina [1, 5]: 0.0175% | % Administered Dose, Cornea [1, 6]: 0.0109% | % Administered Dose, Eyelid/periorbital skin [1, 6]: 0.3844% | % Administered Dose, Vitreous humor [1, 6]: 0.0000% | % Administered Dose, Retina [1, 6]: 0.0264% | % Administered Dose, Cornea [1, 7]: 0.0149% | % Administered Dose, Eyelid/periorbital skin [1, 7]: 0.0149% | % Administered Dose, Vitreous humor [1, 7]: 0.0000% | % Administered Dose, Retina [1, 7]: 0.0228% | maximum percentage of the administered dose, cornea [1, 8]: 0.0283% | maximum percentage of the administered dose, eyelid/periorbital skin [1, 8]: 0.4288% | maximum percentage of the administered dose, retina [1, 8]: 0.0343% | Cmax ([1]; cornea, JV-MD2, monkey, single dose about 7 mg via NIODP, read-out: Cmax in cornea): 66000 ng/g | Cmax ([1]; retina, JV-MD2, NHP, about 7 mg/eye via NIODP, read-out: retinal Cmax): ~338 µM | Cmax ([1]; retina, JV-MD2, monkey, single dose about 7 mg (6775 µg/eye) via NIODP, endogenous level 17 µg/g, read-out: Cmax in retina): 111000 ng/g | concentration at 0.5 h ([1]; cynomolgus, cornea of the dosed left eye (OS), JV-MD2, monkey, NIODP OS, 6568 μg/eye, 0.5 h, endogenous BLQ, read-out: Drug in OS Tissues, Cornea): 66000 ng/g | concentration at 24 h ([1]; cynomolgus, cornea of the dosed left eye (OS), JV-MD2, monkey, NIODP OS, 6747 μg/eye, 24 h, endogenous BLQ, read-out: Drug in OS Tissues, Cornea): 26000 ng/g | concentration at 3 h ([1]; cynomolgus, cornea of the dosed left eye (OS), JV-MD2, monkey, NIODP OS, 6768 μg/eye, 3 h, endogenous BLQ, read-out: Drug in OS Tissues, Cornea): 22000 ng/g | concentration at 6 h ([1]; cynomolgus, cornea of the dosed left eye (OS), JV-MD2, monkey, NIODP OS, 7018 μg/eye, 6 h, endogenous BLQ, read-out: Drug in OS Tissues, Cornea): 22000 ng/g | concentration at 0.5 h ([1]; cynomolgus, plasma, JV-MD2 21.5% w/w, monkey, NIODP periorbital skin OS, 6568 μg/eye, 0.5 h, pre-dose baseline 2, read-out: Drug in plasma): 2000 ng/mL | concentration at 24 h ([1]; cynomolgus, plasma, JV-MD2 21.5% w/w, monkey, NIODP periorbital skin OS, 6747 μg/eye, 24 h, pre-dose baseline 2, read-out: Drug in plasma): 1000 ng/mL | concentration at 3 h ([1]; cynomolgus, plasma, JV-MD2 21.5% w/w, monkey, NIODP periorbital skin OS, 6768 μg/eye, 3 h, pre-dose baseline 2, read-out: Drug in plasma): 3000 ng/mL | concentration at 6 h ([1]; cynomolgus, plasma, JV-MD2 21.5% w/w, monkey, NIODP periorbital skin OS, 7018 μg/eye, 6 h, pre-dose baseline 2, read-out: Drug in plasma): 2000 ng/mL | Cmax ([1]; cynomolgus, retina, 6775 µg per eye, JV-MD2, NHP, about 7 mg/eye via NIODP, read-out: retinal Cmax): 338 µM | concentration at 0.5 h ([1]; cynomolgus, retina, JV-MD2, monkey, NIODP OS, 6568 μg/eye, 0.5 h, endogenous DHA 17 µg/g, read-out: Drug in OS Tissues, Retina): 111000 ng/g | concentration at 24 h ([1]; cynomolgus, retina, JV-MD2, monkey, NIODP OS, 6747 μg/eye, 24 h, endogenous DHA 17 µg/g, read-out: Drug in OS Tissues, Retina): 47000 ng/g | concentration at 3 h ([1]; cynomolgus, retina, JV-MD2, monkey, NIODP OS, 6768 μg/eye, 3 h, endogenous DHA 17 µg/g, read-out: Drug in OS Tissues, Retina): 67000 ng/g | concentration at 6 h ([1]; cynomolgus, retina, JV-MD2, monkey, NIODP OS, 7018 μg/eye, 6 h, endogenous DHA 17 µg/g, read-out: Drug in OS Tissues, Retina): 79000 ng/g | concentration at 0.5 h ([1]; cynomolgus, upper eyelid (periorbital skin) of the dosed left eye (OS), JV-MD2, monkey, NIODP OS, 6568 μg/eye, 0.5 h, endogenous BLQ, read-out: Drug in OS Tissues, Eyelid/periorbital skin): 381000 ng/g | concentration at 24 h ([1]; cynomolgus, upper eyelid (periorbital skin) of the dosed left eye (OS), JV-MD2, monkey, NIODP OS, 6747 μg/eye, 24 h, endogenous BLQ, read-out: Drug in OS Tissues, Eyelid/periorbital skin): 16000 ng/g | concentration at 3 h ([1]; cynomolgus, upper eyelid (periorbital skin) of the dosed left eye (OS), JV-MD2, monkey, NIODP OS, 6768 μg/eye, 3 h, endogenous BLQ, read-out: Drug in OS Tissues, Eyelid/periorbital skin): 420000 ng/g | concentration at 6 h ([1]; cynomolgus, upper eyelid (periorbital skin) of the dosed left eye (OS), JV-MD2, monkey, NIODP OS, 7018 μg/eye, 6 h, endogenous BLQ, read-out: Drug in OS Tissues, Eyelid/periorbital skin): 11000 ng/g | concentration at 24 h ([1]; cynomolgus, vitreous humor, 6775 µg per eye, JV-MD2, monkey, NIODP 6775 µg/eye, 24 h post-dose, read-out: concentration in vitreous humor): 2000 ng/mL | concentration at 0.5 h ([1]; cynomolgus, vitreous humor, JV-MD2, monkey, NIODP OS, 6568 μg/eye, 0.5 h, BLQ given a value of 0, LLOQ 0.5 µg/mL, read-out: Drug in OS Tissues, Vitreous humor): 0 ng/g | concentration at 24 h ([1]; cynomolgus, vitreous humor, JV-MD2, monkey, NIODP OS, 6747 μg/eye, 24 h, read-out: Drug in OS Tissues, Vitreous humor): 2000 ng/g | concentration at 3 h ([1]; cynomolgus, vitreous humor, JV-MD2, monkey, NIODP OS, 6768 μg/eye, 3 h, BLQ given a value of 0, LLOQ 0.5 µg/mL, read-out: Drug in OS Tissues, Vitreous humor): 0 ng/g | concentration at 6 h ([1]; cynomolgus, vitreous humor, JV-MD2, monkey, NIODP OS, 7018 μg/eye, 6 h, BLQ given a value of 0, LLOQ 0.5 µg/mL, read-out: Drug in OS Tissues, Vitreous humor): 0 ng/g | IC50 (COX-2): 18 µM | IC50 (IL-1β production): 4.6 µM | laser-induced CNV formation [2]: effectively inhibited laser-induced CNV formation | effect on AMD pathologies [3]: alleviated most pathologies | protective effect on photoreceptors (photoreceptors): induced a protective effect
